Source: US9642803B2, “Nano-sized particles comprising multi-headed amphiphiles for targeted drug delivery” (Ben-Gurion University Of The Negev Research And Development …, priority 2009, dated 2017)

Columns and labels:
[1] = Percentage of encapsulation in bolaamphiphile vesicles; format: physicochemical
mice = test: Hot plate test (analgesic effect) in mice; format: in vivo; conditions: for response time: nanoparticles by ethanol injection, encapsulated groups pre-injected with pyridostigmine 0.5 mg/kg; for analgesic effect: i.v. 20 mg/Kg
Protocol: The response of mice to a transient painful stimulus was measured following administration of the test material (either i.v. into the tail vein or per os by gavages). The analgesic effect was determined by placing the mouse on a hot plate (55° C., IITC model 39) and recording the time for withdrawing/licking the hind limb (hot plate test). To prevent tissue damage and suffering of the animal, the experiment was terminated after 20 sec if no response was evoked. The response latencies were recorded and either used by themselves for comparison or normalized as percent of maximal possible effect (MPE) using the equation: […]
where: RT—is the response latency after treatment; RT0—is the response latency of a mouse without treatment and RTmax—is the maximal response time allowed (20 sec).
Derivative 4-nanoparticles comprising leu-enkephalin, prepared as described in Example 9 by FHS (film hydration flowed by sonication), were administered to mice and their ability to exert an analgesic effect was measured by the hot plate test described in Methods.
Nanoparticles were made from 10 mg/ml Derivative 4 with cholesterol and cholesteryl hemisuccinate as additives (2:1:1) and 10% molar ratio chitosan (CS)-vernolic acid conjugate in presence of 2.5 mg/ml leu-enkephalin. In these nanoparticles, CS-vernolic acid conjugate serves as a pendant on the nanoparticles/vesicles in order to enhance penetrability.
Nanoparticles were injected into the tail vein at a dose of 20 mg/kg bolaamphiphile, which corresponds to 5 mg/kg leu-enkephaime. Empty nanoparticles and free leu-enkephalin injected in a dose of 20 mg/kg, were used as a negative control and morphine at a dose of 5 mg/kg was used as a positive control. Mice were pretreated with 0.5 mg/kg pyridostigmine 15 min prior to the injection of the nanoparticles. Pyridostigmine inhibits the activity of acetylcholine esterase and thus prevents hydrolysis of the acetyl choline headgroups in the periphery.
Analgesic effect studies (hot plate test) in mice were carried out using nanoparticles comprising Derivative 1 or Derivative 4 and prepare by the ethanol injection technique described in Example 10. The hot plate test was preformed as described in Example 19. All mice treated with encapsulated leu-enkephalin, were pre-injected with the periphery acetylcholine esterase inhibitor pyridostigmine (0.5 mg/kg).
The efficacy of delivering leu-enkephalin in various nanoparticles in oral formulations versus i.v. injectable formulations were tested (a hot plate test of Example 20). Thus, formulations comprising leu-enkephalin encapsulated in the following nanoparticles were prepared: (a) nanoparticles comprising Derivative 4, cholesterol, cholesteryl hemisuccinate and vernolyl-chitosan prepared according to Example 13(i); (b) nanoparticles comprising distearyl phosphatidyl choline (DSPC) as the amphiphilic compound, cholesterol, prepared as described in Example 13(iii).
Formulations comprising […] leu-enkephalin loaded nanoparticles were administered by gavages at a dose of 100 mg/kg bolaamphiphile, which corresponds to 25 mg/kg leu-enkephalin. The same dose of free leu-enkephalin was administered by gavages as a control. The results were compared to liposomes made from 20 mg/ml DSPC in presence of 5 mg/ml leu-enkephalin and administered at a dose of 200 mg/kg phospholipid, which corresponds to 50 mg/kg leu-enkephalin. The mice were preinjected with pyridostigmine as in example 20. The results, are shown in FIG. 2, represent the analgesic effect as percent of maximal possible response (MPE).
In order to assess an optimized delivery and targeted release efficiencies, the analgesic effect of formulations containing nanoparticles comprising Derivative 4, cholesterol, cholesteryl hemisuccinate and vernoyl chitosan as additives (chitosan nanoparticles), and various amounts of leu-enkephalin was studied by the hot plate test. Nanoparticles were prepared as described in Example 15. […]

Q: Which “percentage of CF encapsulation” value ([1]; Derivative 4/cholesterol/cholesteryl hemisuccinate/PEG(201) or PEG(202) 100:25:25:10 nanoparticles, PBS pH 8.0) does the source give for 5(6)-Carboxyfluorescein [CF] here?
A: 20%

Q: For `CN(C)C(=O)Oc1ccc[n+](C)c1.[Br-]` [pyridostigmine, 3-(Dimethylamino-carbonyloxy)-1-methylpyridinium bromide], which “analgesic response of pyridostigmine by itself” value (mice; 0.5 mg/kg) is on record?
A: does not evoke an analgesic response

Q: With “[5-Leucine] Enkephalin [free leu-enkephalin]” as the compound, how does the response time (mice; 10 minutes after i.v. injection) read?
A: 3 s

Q: And the response time (mice; 30 minutes after i.v. injection)?
A: 2 s

Q: And the response time (mice; 60 minutes after i.v. injection)?
A: 2 s

Q: What about the analgesic effect (mice; mice pretreated with pyridostigmine, Example 27) of the same compound?
A: no significant analgesic effect

Q: And the analgesic effect (mice; Example 28)?
A: no significant analgesic effect

Q: And the “percentage of encapsulation at pH above pI relative to pH below pI” value ([1]; Derivative 4/cholesterol/cholesteryl hemisuccinate nanoparticles, TBS pH 8.5)?
A: 2 to 4 times
